{"source": "patent US12390465B2", "about": "“Coumarin derivative for therapy or prophylaxis of a cell proliferative disorder” (The Institute of Cancer Research: Royal Cancer Hospital, priority 2017, dated 2025)", "assay_type_in_all_cases": "in vivo, human", "key": {"[1]": {"system": "HRAS mutant apocrine adenocarcinoma of the scalp", "assay": "Example 3: oral treatment of an apocrine adenocarcinoma patient following the dosing guidance", "settings": "for reduction in tumor size: CT scan", "method": "A potassium salt of compound (I) (the potassium salt being also referred to as the “IMP” in this example) was orally administered to a patient with HRAS mutant apocrine adenocarcinoma of the scalp. Apocrine adenocarcinoma of the scalp is a cutaneous sweat gland carcinoma. The patient was diagnosed in 2014, and had radiotherapy and surgery twice before treatment with the IMP.\nTreatment of the patient by the IMP was started on 8th Jan., 2018 at a dose of 4 mg twice weekly in 4-week cycles. In Cycle 1 Week 3, the patient had Grade 2 acneiform rash and Grade 2 diarrhoea and thus the dosage was reduced to a 3 weeks on/1 week off schedule with 4 mg twice weekly. The grade of acneiform rash was one (1) in Cycle 2 Day 1, […] in Cycle 2 Day 22, and two (2) in Cycle 3 Day 1. Thus, the dose at Cycle 3 Day 1 was not reduced to 3.2 mg and was determined as 4 mg.\nTreatment of the patient by the IMP is ongoing as of 30th Apr., 2018 (Cycle 5 Day 1) without any Grade 2 or higher rash or diarrhoea being observed."}, "[2]": {"system": "KRAS mutant and NRAS mutant IgG lambda multiple myeloma", "assay": "Example 1: oral treatment of a multiple myeloma patient, 3 weeks on/1 week off", "settings": "for FLCk: pre 325 mg/L, 4 mg twice weekly", "method": "A potassium salt of compound (I) (the potassium salt being also referred to as the “IMP” in this example) was orally administered to a patient with KRAS mutant and NRAS mutant IgG lambda multiple myeloma at a dose of 4 mg twice weekly (Tuesday and Friday) in 4-week cycles consisting of 3 weeks of treatment followed by 1 week of rest (3 weeks on/1 week off). Dexamethasone was not used in combination with the IMP.\nThe patient started dosing on 29 Nov., 2016. […] initial and ongoing toxicity was intermittent Grade 1 diarrhoea that may be related to the IMP.\nThe patient had previously been treated with: • Autologous stem cell transplant • Proteasome inhibitor • Immunomodulatory drug • Cyclophosphamide+Dexamethasone+Thalidomide • Melphalan • Lenalidomide • Cyclophosphamide+Bortezomib • Dexamethasone • Spine T3-T12, 5 fractions (radiotherapy)"}, "[3]": {"system": "KRAS mutant non-small-cell lung cancer", "assay": "Example 2: oral treatment of a non-small-cell lung cancer patient with stepwise dose reduction", "settings": "for best response, reduction in target lesions by RECIST 1.1: CT scan", "method": "A potassium salt of compound (I) (the potassium salt being also referred to as the “IMP” in this example) was orally administered to a patient with KRAS mutant non-small-cell lung cancer.\nThe patient started treatment on 1 Sep., 2014. The IMP was first administered at a dose of 4 mg twice weekly in 4-week cycles consisting of 4 weeks of treatment (4 mg 4 wk on). In Cycle 9, due to Grade 3 maculopapular rash, the dosage was reduced to 3.2 mg twice weekly in 4-week cycles (3.2 mg 4 wk on). In Cycle 22, due to Grade 3 facial rash, the dosage was reduced again to a 3 weeks on/1 week off schedule with 3.2 mg twice weekly (3.2 mg 3 wk on/1 wk off).\nThe horizontal axis (X-axis) represents the treatment cycle number and the vertical axis (Y-axis) represents the rate of change of tumor size from baseline. The tumor size was measured by CT scan. The best responses of the dosing schedules 4 mg 4 wk on, 3.2 mg 4 wk on, and 3.2 mg 3 wk on/1 wk off were 58% reduction, 61% reduction, and 68% reduction in target lesions by RECIST 1.1, respectively. Treatment of the patient by the IMP is being continued as of 18 Apr., 2018 (at Cycle 48, equivalent to 3.6 years) without any Grade 2 or higher rash being observed.\nThe patient had previously been treated with: • Carboplatin/Pemetrexed • Pemetrexed • Docetaxel • Pleurodesis (October 2012) (surgery)"}, "solid cancers": {"system": "solid cancers", "assay": "Earlier dosing regimen (twice weekly, 4 mg per administration) in patients", "settings": "some cases", "method": "In regard to the usage and dosage of compound (I) or a salt thereof, a potassium salt of compound (I) is known to be administered to patients with solid cancers such as non-small-cell lung cancer, ovarian cancer, endometrial cancer, and colorectal cancer twice weekly at a dose of 4 mg per administration (see non patent document 1)."}, "[4]": {"settings": "4 mg twice weekly in 4-week cycles, Cycle 1 Week 3"}}, "data": [{"molecule": "CNS(=O)(=O)[N-]c1nccc(Cc2c(C)c3ccc(Oc4ncccn4)cc3oc2=O)c1F.[K+]", "note": "[IMP]", "values": [{"measurement": "acneiform rash (grade)", "setting": "[1]; [4]", "result": 2, "unit": "Grade"}, {"measurement": "diarrhoea (grade)", "setting": "[1]; [4]", "result": 2, "unit": "Grade"}, {"measurement": "response by RECIST 1.1 (tumor size by CT scan)", "setting": "[1]; 4 mg twice weekly, 3 weeks on/1 week off", "result": "partial response"}, {"measurement": "acneiform rash (grade)", "setting": "[1]; 4 mg twice weekly, 3 weeks on/1 week off, Cycle 2 Day 1", "result": 1, "unit": "Grade"}, {"measurement": "acneiform rash (grade)", "setting": "[1]; 4 mg twice weekly, 3 weeks on/1 week off, Cycle 2 Day 22", "result": 3, "unit": "Grade"}, {"measurement": "acneiform rash (grade)", "setting": "[1]; 4 mg twice weekly, 3 weeks on/1 week off, Cycle 3 Day 1", "result": 2, "unit": "Grade"}, {"measurement": "reduction in tumor size", "setting": "[1]; Cycle 2 Day 22", "result": 54, "unit": "%"}, {"measurement": "reduction in tumor size", "setting": "[1]; Cycle 4 Day 15", "result": 58, "unit": "%"}, {"measurement": "diarrhoea observed (grade) during ongoing treatment", "setting": "[1]; as of Cycle 5 Day 1", "result": "< 2", "unit": "Grade"}, {"measurement": "rash observed (grade) during ongoing treatment", "setting": "[1]; as of Cycle 5 Day 1", "result": "< 2", "unit": "Grade"}, {"measurement": "rash related to the IMP (grade)", "setting": "[2]; 4 mg twice weekly oral, no dexamethasone", "result": 2, "unit": "Grade"}, {"measurement": "diarrhoea (toxicity grade)", "setting": "[2]; 4 mg twice weekly oral, no dexamethasone, initial and ongoing, intermittent, may be related to the IMP", "result": 1, "unit": "Grade"}, {"measurement": "response as per IMWG criteria", "setting": "[2]; 4 mg twice weekly oral, ongoing", "result": "partial response"}, {"measurement": "FLCk", "setting": "[2]; after 1 cycle", "result": 161, "unit": "mg/L"}, {"measurement": "FLCk", "setting": "[2]; after 2 cycles", "result": 264, "unit": "mg/L"}, {"measurement": "rash (grade) after the reductions", "setting": "[3]; 3.2 mg twice weekly, 3 wk on/1 wk off", "result": 1, "unit": "Grade"}, {"measurement": "facial rash (grade)", "setting": "[3]; 3.2 mg twice weekly, 4 wk on, Cycle 22", "result": 3, "unit": "Grade"}, {"measurement": "maculopapular rash (grade)", "setting": "[3]; 4 mg twice weekly, 4 wk on, Cycle 9", "result": 3, "unit": "Grade"}, {"measurement": "rash observed (grade) during continued treatment", "setting": "[3]; as of Cycle 48 (3.6 years)", "result": "< 2", "unit": "Grade"}, {"measurement": "response by RECIST 1.1", "setting": "[3]; maintained at Cycle 40, 3.2 mg 3 wk on/1 wk off", "result": "partial response"}, {"measurement": "best response, reduction in target lesions by RECIST 1.1", "setting": "[3]; schedule 3.2 mg 3 wk on/1 wk off", "result": 68, "unit": "%"}, {"measurement": "best response, reduction in target lesions by RECIST 1.1", "setting": "[3]; schedule 3.2 mg 4 wk on", "result": 61, "unit": "%"}, {"measurement": "best response, reduction in target lesions by RECIST 1.1", "setting": "[3]; schedule 4 mg 4 wk on", "result": 58, "unit": "%"}]}, {"molecule": "CNS(=O)(=O)Nc1nccc(Cc2c(C)c3ccc(Oc4ncccn4)cc3oc2=O)c1F", "note": "[compound (I)]", "values": [{"measurement": "adverse event leading to unplanned dose interruption and/or dose reduction", "setting": "solid cancers", "result": "worsening of skin rash"}]}]}
